Results published in PMC6264224, “A Practical Approach to New (5Z) 2-Alkylthio-5-arylmethylene-1-methyl-1,5-dihydro-4H-imidazol-4-one Derivatives” (Molecules, 2011).

COc1ccc(/C=C2/C(=O)NC(=S)N2C)cc1O [4d, (5Z)-5-(3-Hydroxy-4-methoxybenzylidene)-1-methyl-2-thioxoimidazolidin-4-one]
melting point: 203 to 205 °C
